Laboratory results: ChEMBL document CHEMBL5390317, “Novel Indane-Containing NBTIs with Potent Anti-Gram-Negative Activity and Minimal hERG Inhibition” (ACS Med Chem Lett, 2023)
≈ marks a conversion by molar mass, not a printed value.

Key:
Pseudomonas aeruginosa [1] = experiment: Antibacterial activity against Pseudomonas aeruginosa NCTC 13437 assessed as inhibition in bacterial growth incubated for 20 to 24 hrs by CLSI based broth microdilution method; assay type: functional; details: Pseudomonas aeruginosa, NCTC 13437, time 20-24 hrs; read-out: MIC
[2] = Inhibition of Escherichia coli topoisomerase 4 incubated for 120 mins by Transcreener ADP2 FI assay
Escherichia coli [3] = experiment: Antibacterial activity against Escherichia coli K-12 BW25113 assessed as inhibition in bacterial growth incubated for 20 to 24 hrs by CLSI based broth microdilution method; assay type: functional; details: Escherichia coli, K-12 BW25113, time 20-24 hrs; read-out: MIC
Escherichia coli [4] = experiment: Antibacterial activity against Escherichia coli ATCC BAA-2340 assessed as inhibition in bacterial growth incubated for 20 to 24 hrs by CLSI based broth microdilution method; assay type: functional; details: Escherichia coli, ATCC BAA-2340, time 20-24 hrs; read-out: MIC
Escherichia coli [5] = experiment: Antibacterial activity against Escherichia coli ATCC 25922 assessed as inhibition in bacterial growth incubated for 20 to 24 hrs by CLSI based broth microdilution method; assay type: functional; details: time 20-24 hrs
Klebsiella pneumoniae [6] = experiment: Antibacterial activity against Klebsiella pneumoniae ATCC BAA-1705 assessed as inhibition in bacterial growth incubated for 20 to 24 hrs by CLSI based broth microdilution method; assay type: functional; details: time 20-24 hrs
Klebsiella pneumoniae [7] = experiment: Antibacterial activity against Klebsiella pneumoniae ATCC 700603 assessed as inhibition in bacterial growth incubated for 20 to 24 hrs by CLSI based broth microdilution method; assay type: functional; details: Klebsiella pneumoniae, ATCC 700603, time 20-24 hrs; read-out: MIC
Pseudomonas aeruginosa [8] = experiment: Antibacterial activity against Pseudomonas aeruginosa ATCC 27853 assessed as inhibition in bacterial growth incubated for 20 to 24 hrs by CLSI based broth microdilution method; assay type: functional; details: time 20-24 hrs
Klebsiella pneumoniae [9] = experiment: Antibacterial activity against Klebsiella pneumoniae ATCC BAA-2146 assessed as inhibition in bacterial growth incubated for 20 to 24 hrs by CLSI based broth microdilution method; assay type: functional; details: Klebsiella pneumoniae, ATCC BAA-2146, time 20-24 hrs; read-out: MIC
hERG (KCNH2) [10] = molecular target: T1, hERG (KCNH2) (Homo sapiens, UniProt Q12809); experiment: (§1) Inhibition of hERG potassium channel expressed in CHO cells by electrophysiological patch clamp assay; assay type: toxicity, cell-based; details: human, CHO cells expressing hERG
T1 sequence (Q12809 whole entry): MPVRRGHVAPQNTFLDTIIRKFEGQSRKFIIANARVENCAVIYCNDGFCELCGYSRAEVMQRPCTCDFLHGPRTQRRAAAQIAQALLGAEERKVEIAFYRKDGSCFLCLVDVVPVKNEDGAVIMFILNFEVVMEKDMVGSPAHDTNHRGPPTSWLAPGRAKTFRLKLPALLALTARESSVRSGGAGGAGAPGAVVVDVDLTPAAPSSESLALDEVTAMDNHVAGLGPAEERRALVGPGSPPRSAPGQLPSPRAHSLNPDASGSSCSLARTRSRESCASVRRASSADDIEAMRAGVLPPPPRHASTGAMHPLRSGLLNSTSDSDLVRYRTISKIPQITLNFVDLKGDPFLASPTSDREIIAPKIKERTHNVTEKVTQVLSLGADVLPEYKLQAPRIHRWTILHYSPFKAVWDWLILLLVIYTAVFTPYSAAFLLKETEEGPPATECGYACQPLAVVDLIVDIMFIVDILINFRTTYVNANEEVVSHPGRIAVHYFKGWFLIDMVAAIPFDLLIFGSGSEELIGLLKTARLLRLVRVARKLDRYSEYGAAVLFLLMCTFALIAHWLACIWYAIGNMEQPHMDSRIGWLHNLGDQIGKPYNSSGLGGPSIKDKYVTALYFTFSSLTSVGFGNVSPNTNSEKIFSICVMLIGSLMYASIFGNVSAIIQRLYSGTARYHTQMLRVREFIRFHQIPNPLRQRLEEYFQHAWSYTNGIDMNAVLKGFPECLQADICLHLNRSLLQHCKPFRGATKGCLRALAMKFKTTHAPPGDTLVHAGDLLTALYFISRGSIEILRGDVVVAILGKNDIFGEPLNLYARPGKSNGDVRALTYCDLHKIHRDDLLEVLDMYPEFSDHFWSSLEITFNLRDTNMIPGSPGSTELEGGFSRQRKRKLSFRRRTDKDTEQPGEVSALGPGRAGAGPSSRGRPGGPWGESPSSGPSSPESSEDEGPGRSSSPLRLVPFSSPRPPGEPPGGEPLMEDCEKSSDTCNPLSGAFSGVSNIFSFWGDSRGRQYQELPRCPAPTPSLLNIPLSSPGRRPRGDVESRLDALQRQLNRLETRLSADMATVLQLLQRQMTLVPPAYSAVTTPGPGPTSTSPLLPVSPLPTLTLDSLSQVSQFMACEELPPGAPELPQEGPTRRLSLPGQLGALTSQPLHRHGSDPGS

[11] = molecular target: Voltage-gated inwardly rectifying potassium channel KCNH2 (Homo sapiens, UniProt Q12809); experiment: as §1; assay type: toxicity, cell-based
Voltage-gated inwardly rectifying potassium channel KCNH2, sequence (Q12809 whole entry): as above

Staphylococcus aureus [12] = experiment: Antibacterial activity against Staphylococcus aureus ATCC 29213 assessed as inhibition in bacterial growth incubated for 20 to 24 hrs by CLSI based broth microdilution method; assay type: functional; details: Staphylococcus aureus, ATCC 29213; time 20-24 hrs; read-out: MIC
Escherichia coli [13] = experiment: Antibacterial activity against Escherichia coli K-12 BW25113 deltaTolC assessed as inhibition in bacterial growth incubated for 20 to 24 hrs by CLSI based broth microdilution method; assay type: functional; details: time 20-24 hrs
[14] = Stability in mouse plasma assessed as parent compound remaining after 5 hrs relative to control; assay type: ADME, cell-free; details: read-out: Stability
Pseudomonas aeruginosa [15] = experiment: Antibacterial activity against Pseudomonas aeruginosa NCTC 11451 assessed as inhibition in bacterial growth incubated for 20 to 24 hrs by CLSI based broth microdilution method; assay type: functional; details: Pseudomonas aeruginosa, NCTC 11451, time 20-24 hrs; read-out: MIC
Escherichia coli [16] = experiment: Antibacterial activity against Escherichia coli ATCC 35218 assessed as inhibition in bacterial growth incubated for 20 to 24 hrs by CLSI based broth microdilution method; assay type: functional; details: Escherichia coli, ATCC 35218, time 20-24 hrs; read-out: MIC
Acinetobacter baumannii [17] = experiment: Antibacterial activity against Acinetobacter baumannii ATCC 19606 assessed as inhibition in bacterial growth incubated for 20 to 24 hrs by CLSI based broth microdilution method; assay type: functional; details: time 20-24 hrs
hERG (KCNH2) [18] = molecular target: T1, hERG (KCNH2); experiment: Inhibition of hERG potassium channel expressed in CHO cells at 1 uM by electrophysiological patch clamp assay relative to control; assay type: toxicity, cell-based; details: CHO cells expressing hERG
Klebsiella pneumoniae [19] = experiment: Antibacterial activity against Klebsiella pneumoniae ATCC 10031 assessed as inhibition in bacterial growth incubated for 20 to 24 hrs by CLSI based broth microdilution method; assay type: functional; details: time 20-24 hrs
hERG (KCNH2) [20] = molecular target: T1, hERG (KCNH2); experiment: Inhibition of hERG potassium channel expressed in CHO cells at 10 uM by electrophysiological patch clamp assay relative to control; assay type: toxicity, cell-based; details: CHO cells expressing hERG
Acinetobacter baumannii [21] = experiment: Antibacterial activity against Acinetobacter baumannii ATCC 51432 assessed as inhibition in bacterial growth incubated for 20 to 24 hrs by CLSI based broth microdilution method; assay type: functional; details: Acinetobacter baumannii, ATCC 51432, time 20-24 hrs; read-out: MIC
Acinetobacter baumannii [22] = experiment: Antibacterial activity against Acinetobacter baumannii ATCC BAA-747 assessed as inhibition in bacterial growth incubated for 20 to 24 hrs by CLSI based broth microdilution method; assay type: functional; details: Acinetobacter baumannii, ATCC BAA-747, time 20-24 hrs; read-out: MIC
DNA gyrase = DNA gyrase (Escherichia coli, UniProt P0AES4+P0AES6); experiment: Inhibition of Escherichia coli DNA gyrase incubated for 80 mins by Transcreener ADP2 FI assay; assay type: protein-complex assay
Staphylococcus aureus [23] = experiment: Antibacterial activity against Staphylococcus aureus ATCC BAA-1556 assessed as inhibition in bacterial growth incubated for 20 to 24 hrs by CLSI based broth microdilution method; assay type: functional; details: Staphylococcus aureus, ATCC BAA-1556, time 20-24 hrs; read-out: MIC
[24] = Stability in rat plasma; assay type: ADME, cell-free
[25] = Stability in rat plasma assessed as parent compound remaining after 5 hrs relative to control; assay type: ADME, cell-free; details: read-out: Stability
[26] = Stability in human plasma assessed as parent compound remaining after 5 hrs relative to control; assay type: ADME, cell-free; details: read-out: Stability
[27] = Stability in mouse plasma; assay type: ADME, cell-free
[28] = Stability in human plasma; assay type: ADME, cell-free
[29] = Lipophilicity, log D of compound at pH 7.4; assay type: physicochemical; details: buffer

| MIC (Pseudomonas aeruginosa [1]) [µg/mL] | IC50 [2] [nM] | MIC (Escherichia coli [3]) [µg/mL] | MIC (Escherichia coli [4]) [µg/mL] | MIC (Escherichia coli [5]) [µg/mL] | MIC (Klebsiella pneumoniae [6]) [µg/mL] | MIC (Klebsiella pneumoniae [7]) [µg/mL] | MIC (Pseudomonas aeruginosa [8]) [µg/mL] | MIC (Klebsiella pneumoniae [9]) [µg/mL] | MIC (Staphylococcus aureus [12]) [µg/mL] | MIC (Escherichia coli [13]) [µg/mL] | MIC (Pseudomonas aeruginosa [15]) [µg/mL] | MIC (Escherichia coli [16]) [µg/mL] | MIC (Acinetobacter baumannii [17]) [µg/mL] | MIC (Klebsiella pneumoniae [19]) [µg/mL] | MIC (Acinetobacter baumannii [21]) [µg/mL] | MIC (Acinetobacter baumannii [22]) [µg/mL] | IC50 (DNA gyrase) [nM] | MIC (Staphylococcus aureus [23]) [µg/mL] | Structure (SMILES) | IC20 (hERG (KCNH2) [10]) [nM] | also measured |
| --- | --- | --- | --- | --- | --- | --- | --- | --- | --- | --- | --- | --- | --- | --- | --- | --- | --- | --- | --- | --- | --- |
| 1 (≈ 1.85 µM) | 6 | ≤ 0.06 | 0.125 (≈ 0.232 µM) | 0.125 (≈ 0.232 µM) | 1 (≈ 1.85 µM) | 1 (≈ 1.85 µM) | 0.25 (≈ 0.463 µM) | 4 (≈ 7.41 µM) | 1 (≈ 1.85 µM) | ≤ 0.06 | 1 (≈ 1.85 µM) | 0.125 (≈ 0.232 µM) | 8 (≈ 14.8 µM) | ≤ 0.06 | 8 (≈ 14.8 µM) | 0.125 (≈ 0.232 µM) | 14 | 2 (≈ 3.71 µM) | O=C(CN1CCC1)Nc1cc(F)c2c(c1)CC(CNCCC1CN(c3cnc4c(n3)NC(=O)CO4)C(=O)O1)C2 (stereo unspecified) | > 10000 | IC50 [11]: > 20000 nM; remaining at 5 h [14]: 10%; inhibition at 1 µM (hERG (KCNH2) [18]): < 1%; inhibition at 10 µM (hERG (KCNH2) [20]): < 1% |
| 2 (≈ 3.79 µM) | 3 | ≤ 0.06 | 0.125 (≈ 0.237 µM) | 0.125 (≈ 0.237 µM) | 2 (≈ 3.79 µM) | 2 (≈ 3.79 µM) | 0.5 (≈ 0.948 µM) | 4 (≈ 7.58 µM) | 0.5 (≈ 0.948 µM) | ≤ 0.06 | 2 (≈ 3.79 µM) | 0.125 (≈ 0.237 µM) | 8 (≈ 15.2 µM) | ≤ 0.06 | 16 (≈ 30.3 µM) | 0.25 (≈ 0.474 µM) | 26 | 1 (≈ 1.9 µM) | CN(C)CC(=O)Nc1cc(F)c2c(c1)CC(CNCCC1CN(c3cnc4c(n3)NC(=O)CO4)C(=O)O1)C2 (stereo unspecified) | > 10000 | Stability [24]: Unstable; remaining at 5 h [25]: 99%; IC50 [11]: > 20000 nM; remaining at 5 h [26]: 76%; Stability [27]: Unstable; inhibition at 1 µM (hERG (KCNH2) [18]): < 1%; inhibition at 10 µM (hERG (KCNH2) [20]): < 1%; Stability [28]: Unstable |
| 32 (≈ 63.8 µM) | 27 | 4 (≈ 7.98 µM) | 16 (≈ 31.9 µM) | 8 (≈ 16 µM) | 64 (≈ 128 µM) | 64 (≈ 128 µM) | 8 (≈ 16 µM) | 64 (≈ 128 µM) | 0.25 (≈ 0.498 µM) | ≤ 0.06 | 64 (≈ 128 µM) | 8 (≈ 16 µM) | 8 (≈ 16 µM) | 0.125 (≈ 0.249 µM) | 8 (≈ 16 µM) | 4 (≈ 7.98 µM) | 170 | 1 (≈ 1.99 µM) | CC(N)COc1cc(F)c2c(c1)CC(CCOCC1CN(c3cnc4c(n3)NC(=O)CO4)C(=O)O1)C2 (stereo unspecified) | – | logD [29]: 0.22 |
| 4 (≈ 8.31 µM) | 31 | 0.25 (≈ 0.519 µM) | 1 (≈ 2.08 µM) | 0.5 (≈ 1.04 µM) | 4 (≈ 8.31 µM) | 4 (≈ 8.31 µM) | 4 (≈ 8.31 µM) | 8 (≈ 16.6 µM) | 0.125 (≈ 0.26 µM) | ≤ 0.06 | 8 (≈ 16.6 µM) | 0.5 (≈ 1.04 µM) | 0.5 (≈ 1.04 µM) | ≤ 0.06 | 1 (≈ 2.08 µM) | 0.125 (≈ 0.26 µM) | 81 | 0.25 (≈ 0.519 µM) | N#CCOc1cc(F)c2c(c1)CC(CNCCC1CN(c3ccc4c(n3)NC(=O)CO4)C(=O)O1)C2 (stereo unspecified) | 66 | IC50 [11]: 230 nM; inhibition at 1 µM (hERG (KCNH2) [18]): 84%; inhibition at 10 µM (hERG (KCNH2) [20]): 98% |
| 4 (≈ 7.2 µM) | 13 | ≤ 0.06 | 0.25 (≈ 0.45 µM) | 0.125 (≈ 0.225 µM) | 2 (≈ 3.6 µM) | 4 (≈ 7.2 µM) | 1 (≈ 1.8 µM) | 4 (≈ 7.2 µM) | ≤ 0.06 | ≤ 0.06 | 4 (≈ 7.2 µM) | 0.25 (≈ 0.45 µM) | 2 (≈ 3.6 µM) | ≤ 0.06 | 4 (≈ 7.2 µM) | ≤ 0.06 | 43 | 0.25 (≈ 0.45 µM) | CN(C)C(C)(C)C(=O)Nc1cc(F)c2c(c1)CC(CNCCC1CN(c3cnc4c(n3)NC(=O)CO4)C(=O)O1)C2 (stereo unspecified) | 3000 | Stability [24]: Stable; IC50 [11]: 8200 nM; Stability [27]: Stable; inhibition at 1 µM (hERG (KCNH2) [18]): 5%; inhibition at 10 µM (hERG (KCNH2) [20]): 57%; Stability [28]: Stable |
